Patent EP0595183B1, “Hydantoin derivatives, salts thereof and maillard reaction inhibitors comprising the same” (SANWA KAGAKU KENKYUSHO CO., LTD., priority 1992, dated 1994)

Key:
lysozyme = test: Inhibition of cross-linking of proteins (SDS-PAGE), lysozyme with fructose; type: biochemical; conditions: Protein Lysozyme 10mg/ml, compound 5mM, fructose 400mM, pH 7.4, 37°C for 7 days
Description: (§1) A testing or control compound (5mM), fructose (400mM) and a protein of either BSA (10mg/ml) or lysozyme (10mg/ml) were dissolved in 0.5M Na-phosphate buffer (pH 7.4). The mixture was incubated at 37°C for 7 days At the end of the reaction period, sodium dodecyl sulfonate-polyacrylamide gel electrophoresis (SDS-PAGE) was carried out with using aliquots of the reaction mixture. Protein band was stained with Coomassie brilliant blue and protein content of each band was determined with a SHIMAZU UV-265 scanmeter.
(§2) The inhibition ratio of cross-linking of proteins was estimated with the following equation. Inhibition ratio (%) = [(A - B)/A] x 100 [formula] wherein, A : degree of cross-link formation (containing no compound), and B : degree of cross-link formation (containing the compound).

BSA = test: Inhibition of cross-linking of proteins (SDS-PAGE), BSA with fructose; type: biochemical; conditions: Protein BSA 10mg/ml, compound 5mM, fructose 400mM, pH 7.4, 37°C for 7 days
Description: as §1, §2

rats = test: 4 week subacute toxicity by oral administration; type: in vivo; conditions: rat (male)
From the text: (§3) Acute and 4 week subacute toxicities of exemplar compounds according to the invention were checked by oral administration thereof and using rats.

[1] = test system: bovine serum albumin (BSA); test: Inhibition of fluorescence development (Maillard reaction products) in BSA/fructose incubation; type: biochemical; conditions: compound 5mM, BSA 10mg/ml, fructose 400mM, pH 7.4, 20% DMSO, 37°C for 24 hours; fluorescence ex 350nm / em 428nm
Description: A testing or control compound (5mM), bovine serum albumin (BSA, 10mg/ml) and fructose (400mM) were dissolved in […] Na-phosphate buffer (pH 7.4) containing 20% DMSO. The mixture was incubated at 37°C for 24 hours.
The incubated mixture was diluted to 10 folds in volume with distilled water and measured fluorescense intensity at excitation wavelength of 350nm and emission wavelength of 428nm with a HITACHI F-4010 spectrofluorometer. The inhibition ratio of fluorescense development was estimated with the following equation. Inhibition (%) = {[F1-F3-F4)- (F2-F3-F4)]/(F1-F3-F4)} x 100 [formula] wherein, Inhibition : Inhibition ratio, F1 : Fluorescense intensity of the solution containing no compound, F2 : Fluorescense intensity of the solution containing the compound, F3 : Fluorescense intensity of the solution containing only BSA, and F4 : Fluorescense intensity of the solution containing only fructose.

[2] = Acute toxicity by oral administration; conditions: in vivo
From the text: as §3

SMILES | Inhibition ratio (%) (lysozyme) | Inhibition ratio (%) (BSA) | Non-toxic dose (rats) | Inhibition ratio (%) [1] | LD50 ([2]; rat (female)) | LD50 ([2]; rat (male))
N=C(N)NN [Aminoguanidine, reference compound] | 59.3% | 70.7% | 30 mg/kg | 86.9% | 1300 mg/kg | 1900 mg/kg
NNC(=O)[C@H]1C[C@@]2(NC(=O)NC2=O)c2cc(F)ccc2O1 [Example 1, (2R,4R)-6-Fluoro-2',5'-dioxospiro[chroman-4,4'-imidazolidine]-2-carbohydrazide] |  |  |  | 87.3% | > 4000 mg/kg | > 4000 mg/kg
O=C1NC(=O)[C@@]2(C[C@@H](C(=O)NNC(=O)C(F)(F)F)Oc3ccc(F)cc32)N1 [Example 7, (2S, 4S)-6-Fluoro-2',5'-dioxo-N'-trifluoroacetylspiro[chroman-4,4'-imidazolidine]-2-carbohydrazide] |  |  |  | 21.3% |  | 
NC(=O)[C@@H]1C[C@]2(NC(=O)N(N)C2=O)c2cc(F)ccc2O1 [Example 10, (2S,4S)-1'-Ainino-6-fluoro-2',5'-dioxospiro[chroman-4,4'-imidazolidine]-2-carboxamide] |  |  |  | 19.7% |  | 
NNC(=O)[C@@H]1C[C@@]2(NC(=O)NC2=O)c2cc(F)ccc2O1 [Example 3, (2S,4R)-6-Fluoro-2',5'-dioxospiro[chroman-4,4'-imidazolidine]-2-carbohydrazide] |  |  |  | 88.1% |  | 
O=C1NC(=O)[C@@]2(C[C@@H](C(=O)NNc3ccccc3)Oc3ccc(F)cc32)N1 [Reference Example 4, (2S,4S)-6-Fluoro-2',5'-dioxo-N'-phenylspiro[chroman-4,4'-imidazolidine]-2-carbohydrazide] |  |  |  | 17.8% |  | 
NNC(=O)[C@H]1C[C@]2(NC(=O)NC2=O)c2cc(F)ccc2O1 [Example 2, (2R,4S)-6-Fluoro-2',5'-dioxospiro[chroman-4,4'-imidazolidine]-2-carbohydrazide] |  |  |  | 88.6% |  | 
CNNC(=O)[C@@H]1C[C@]2(NC(=O)NC2=O)c2cc(F)ccc2O1 [Reference Example 3, (2S,4S)-6-Fluoro-N'-methyl-2',5'-dioxospiro[chroman-4,4'-imidazolidine]-2-carbohydrazide] |  |  |  | 41.6% |  | 
NNC(=O)[C@@H]1C[C@]2(NC(=O)NC2=O)c2cc(F)ccc2O1 [Reference Example 2, (2S,4S)-6 -Fluoro-2',5'-dioxospiro[chroman-4,4'-imidazolidine]-2-carbohydrazide] | 67.4% | 88.7% | > 2000 mg/kg | 88.7% | > 4000 mg/kg | > 4000 mg/kg
NNC(=O)[C@@H]1C[C@]2(NC(=O)N(N)C2=O)c2cc(F)ccc2O1 [Example 9, (2S,4S)-1'-Amino-6-fluoro-2',5'-dioxospiro[chroman-4,4'-imidazolidine]-2-carbohydrazide] |  |  |  | 86.6% |  | 
